Data as given in patent publication US9259350B2, “Ophthalmic devices for delivery of beneficial agents” (CooperVision International Holding Company, LP, priority 2012, dated 2016).

What was measured:
[1] = Drug uptake by dry vs wet (hydrated) Proclear lenses after autoclave; type: physicochemical; settings: for % Δ Dry vs Wet (drug uptake): Proclear lens; for Drug Uptake, Wet Lens: hydrated Proclear lens; for Drug Uptake, Wet Lens / Drug Uptake, Dry Lens: autoclaved, n=3; for Drug Uptake, Dry Lens: non-hydrated Proclear lens
Method: The ability of hydrated and non-hydrated (dry) Proclear lenses to take up olopatadine, ketotifen, and cromolyn was evaluated. At physiological pH, olopatadine is zwitterionic, ketotifen is positively charged, and cromolyn is negatively charged. […] The dry lenses were removed from their original molds, packaged with 3 ml of each drug solution without any intermediate hydration step and autoclaved. For controls, each drug solution was packaged without a lens and autoclaved. After autoclave, the amount of drug in each packaging solution was measured by HPLC.

[2] = εPLL uptake by non-hydrated Proclear lenses in different buffers; type: physicochemical; settings: dry Proclear lens, autoclaved, n=3
Method: The uptake and release of εPLL from non-hydrated (i.e. dry) Proclear lenses was evaluated. The εPLL (Chisso Corporation, Tokyo, Japan) was prepared at a concentration of 500 ppm in three different buffers, PBS, TRIS buffered saline (0.023% tris(hydroxymethyl)methylamine, 0.544% trizma hydrochloride, 0.819% NaCl; TBS), or Tris-sorbitol. Lenses were individually packaged, in triplicate, in 1.2 ml of each εPLL preparation and autoclaved. Additionally, vials containing 1.2 ml 500 ppm εPLL in each buffer with no lens (control vials) were also autoclaved. The amounts of εPLL present in the post-autoclave solution of the test lens vials and in the control vial were determined by cationic size exclusion chromatography using a sample injection volume of 5 μl, a Water Acquity UPLC BEH 125 SEC 1.7 μm 4.6×150 mm at room temperature, and a flow rate of 0.4 ml/min using 90% 0.2M NaCl/0.1% TFA in H20: 10% ACN isocratically. The average of the amount of εPLL taken up by each test lens (n=3) was calculated by subtracting the amount of εPLL present in the post-autoclave solution of the test lens vial from the amount of εPLL present in the control vial. Lenses packaged with 500 ppm εPLL in PBS took up an average of 88 μg εPLL. Lenses packaged with 500 ppm εPLL in TBS took up 47 μg εPLL, and lenses packaged with 500 ppm εPLL in Tris-sorbitol took up 208 μg εPLL.

Serratia marcescens = assay: Antimicrobial activity of εPLL-packaged Proclear lenses; type: cell-based
Method: (§1) For example, hydrated Proclear contact lenses were packaged and autoclaved in PBS having an ionic strength of about 0.2 and comprising 500 ppm εPLL, an antimicrobial peptide. These lenses took up an average of 5 μg of the εPLL/lens. […] Thus, in various examples, the packaging solution has an ionic strength of less than about 0.15, 0.10, or 0.05 as calculated by the equation: […]

[3] = εPLL uptake by hydrated Proclear lenses, packaging solutions of different ionic strength; type: physicochemical
Method: as §1

[4] = PSS uptake by hydrated and non-hydrated Proclear lenses; type: physicochemical
[5] = high concentration: 250 μg/ml ketotifen, 1000 μg/ml olopatadine, 2000 μg/ml cromolyn
[6] = low concentration: 25 μg/ml ketotifen, 200 μg/ml olopatadine, 400 μg/ml cromolyn
[7] = high concentration: 250 μg/ml ketotifen (borate buffer), 1000 μg/ml olopatadine (PBS), 2000 μg/ml cromolyn (PBS)
[8] = low concentration: 25 μg/ml ketotifen (borate buffer), 200 μg/ml olopatadine (PBS), 400 μg/ml cromolyn (PBS)

Compound	% Δ Dry vs Wet (drug uptake) [1, 5] [%]	% Δ Dry vs Wet (drug uptake) [1, 6] [%]	Drug Uptake, Wet Lens [1, 7] [µg]	Drug Uptake, Wet Lens [1, 8] [µg]	Drug Uptake, Dry Lens [1, 7] [µg]	Drug Uptake, Dry Lens [1, 8] [µg]	further results
CN(C)CC/C=C1/c2ccccc2COc2ccc(CC(=O)O)cc21 [olopatadine]	6	16	202	45	215	52	
CN1CCC(=C2c3ccccc3CC(=O)c3sccc32)CC1 [ketotifen]	−6	−17	122	12	115	10	
epsilon polylysine [εPLL]							εPLL uptake (average) ([2]; 500 ppm εPLL in PBS): 88 µg; εPLL uptake ([2]; 500 ppm εPLL in TBS): 47 µg; εPLL uptake ([2]; 500 ppm εPLL in Tris-sorbitol): 208 µg; antimicrobial activity against Serratia marcescens (Serratia marcescens; Proclear lenses autoclaved in PBS with 500 ppm εPLL): no antimicrobial activity; kill of Serratia marcescens (Serratia marcescens; Proclear lenses autoclaved in TRIS buffer with 2% sorbitol with εPLL): ~4 log; εPLL uptake (average) ([3]; hydrated Proclear lenses autoclaved in PBS, ionic strength about 0.2, 500 ppm εPLL): 5 μg/lens; εPLL uptake (average) ([3]; hydrated Proclear lenses autoclaved in TRIS buffer with 2% sorbitol, ionic strength about 0.02): about 120 μg/lens
C=Cc1ccc(S(=O)(=O)[O-])cc1.[Na+] [compound 206, styrene sulfonate]							uptake by dry lens compared to wet lens ([4]; Proclear lens): significantly more; % Δ Dry vs Wet (uptake) ([4]; Proclear lens, 0.01 mole/liter PSS, 48 hours): 16%; Uptake, Wet Lens ([4]; hydrated Proclear lens, 0.01 mole/liter PSS, 48 hours, n=3): 92 µg; Uptake, Dry Lens ([4]; non-hydrated Proclear lens, 0.01 mole/liter PSS, 48 hours, n=3): 110 µg
